Test results reported in US5567692A, “9-[(substituted glycyl) amido)]-6-demethyl-6-deoxytetracyclines” (priority 1995, dated 1996).
Converted amounts (≈) assume the structure as drawn. Structures can show the parent of a compound that is named as a salt. Where two headings read alike, the source gives them in different places.

What was measured:
Type in all cases: cell-based
[1] = tested on: E. coli J2175; assay: MIC, agar dilution; settings: Escherichia coli, 18 h, read-out: MIC
[2] = tested on: E. coli UBMS 89-1 Tet M; assay: microbe, parasite or virus in culture; settings: Escherichia coli, UBMS891TETM, 18 h
[3] = tested on: S. marcescens FPOR 8733; assay: MIC, agar dilution; settings: Serratia marcescens, FPOR8733, 18 h
[4] = tested on: S. aureus NEMC 8769; assay: MIC, agar dilution; settings: Staphylococcus aureus, NEMC8769, 18 h
[5] = tested on: S. aureus UBMS 88-7 Tet K; assay: microbe, parasite or virus in culture; settings: Staphylococcus aureus, UBMS887TETK, 18 h
[6] = tested on: S. aureus UBMS 88-4; assay: MIC, agar dilution; settings: Staphylococcus aureus, UBMS884, 18 h
[7] = tested on: E. coli J3272 Tet D; assay: microbe, parasite or virus in culture; settings: Escherichia coli, J3272TETD, 18 h
[8] = tested on: S. aureus IVES 1983; assay: MIC, agar dilution; settings: Staphylococcus aureus, IVES1983, 18 h
[9] = tested on: Ps. aeruginosa ATCC 27853; assay: MIC, agar dilution; settings: Pseudomonas aeruginosa, ATCC27853, 18 h
[10] = tested on: Enterococcus 12201; assay: MIC, agar dilution; settings: Enterococcus, 12201, 18 h
[11] = tested on: S. aureus ATCC 29213; assay: MIC, agar dilution; settings: Staphylococcus aureus, ATCC29213, 18 h, S. aureus ATCC 29213
[12] = tested on: S. aureus SMITH (MP); assay: MIC, agar dilution; settings: Staphylococcus aureus, 18 h
[13] = tested on: E. coli UBMS 90-5; assay: microbe, parasite or virus in culture; settings: Escherichia coli, UBMS905, 18 h, E. coli UBMS 90-5; read-out: MIC
[14] = tested on: E. coli ATCC 25922; assay: MIC, agar dilution; settings: Escherichia coli, ATCC25922, 18 h
[15] = tested on: E. coli BAJ9003 IMP MUT; assay: microbe, parasite or virus in culture; settings: Escherichia coli, BAJ9003IMPMUT, 18 h
[16] = tested on: E. coli #311 (MP); assay: MIC, agar dilution; settings: Escherichia coli, 18 h
[17] = tested on: S. aureus UBMS 90-3; assay: MIC, agar dilution; settings: Staphylococcus aureus, UBMS903, 18 h, S. aureus UBMS 90-3
[18] = tested on: E. faecalis ATCC 29212; assay: MIC, agar dilution; settings: Enterococcus faecalis, ATCC29212, 18 h
[19] = tested on: X. maltophilia NEMC 87210; assay: MIC, agar dilution; settings: Stenotrophomonas maltophilia, NEMC87210, 18 h
[20] = tested on: E. coli UBMS 89-2 Tet sens.; assay: MIC, agar dilution; settings: Escherichia coli, 18 h
[21] = tested on: E. coli UBMS 88-1 Tet B; assay: microbe, parasite or virus in culture; settings: Escherichia coli, UBMS881TETB, 18 h
[22] = tested on: S. aureus UBMS 90-2 Tet M; assay: microbe, parasite or virus in culture; settings: Staphylococcus aureus, UBMS902TETM, 18 h
[23] = tested on: S. hemolyticus AVHAH 88-3; assay: MIC, agar dilution; settings: Streptococcus pyogenes, AVHAH883, 18 h
[24] = tested on: E. coli J3272 Tet C; assay: microbe, parasite or virus in culture; settings: Escherichia coli, J3272TETC, 18 h
[25] = tested on: E. coli MC 4100 Tet sens.; assay: MIC, agar dilution; settings: Escherichia coli, 18 h
[26] = tested on: S. aureus UBMS 88-5 Tet M; assay: microbe, parasite or virus in culture; settings: Staphylococcus aureus, UBMS885TETM, 18 h
[27] = tested on: S. aureus UBMS 90-1 Tet M; assay: microbe, parasite or virus in culture; settings: Staphylococcus aureus, UBMS901TETM, 18 h
[28] = tested on: E. coli MC 4100 TNIOC Tet B; assay: microbe, parasite or virus in culture; settings: Escherichia coli, 18 h
[29] = tested on: E. coli PRP1 Tet A; assay: microbe, parasite or virus in culture; settings: Escherichia coli, PRP1TETA, 18 h
[30] = tested on: E. coli UBMS 90-4 Tet M; assay: microbe, parasite or virus in culture; settings: Escherichia coli, UBMS904TETM, 18 h
[31] = tested on: S. aureus ROSE (MP); assay: MIC, agar dilution; settings: Staphylococcus aureus, 18 h
[32] = tested on: S. aureus IVES 2943; assay: MIC, agar dilution; settings: Staphylococcus aureus, IVES2943, 18 h
[33] = Ps. aeruginosa ATCC 27853, read-out: MIC
[34] = E. faecalis ATCC 29212, read-out: MIC
[35] = Enterococcus 12201, read-out: MIC
[36] = S. aureus SMITH (MP), read-out: MIC

| SMILES | MIC [1] | MIC [2] | MIC ([4]; read-out: MIC) | MIC [5] | MIC [6] | MIC [7] | MIC [9, 33] | MIC [13] | MIC [15] | MIC [16] | MIC [20] | MIC [21] | MIC [24] | MIC [25] | MIC [26] | MIC [27] | MIC [28] | MIC [29] | MIC [30] | MIC [31] | other results |
| --- | --- | --- | --- | --- | --- | --- | --- | --- | --- | --- | --- | --- | --- | --- | --- | --- | --- | --- | --- | --- | --- |
| CC(C(=O)Nc1ccc2c(c1O)C(=O)C1=C(O)[C@]3(O)C(=O)C(C(N)=O)=C(O)[C@@H](N(C)C)C3CC1C2)N(C)C (stereo partly drawn) [B, [4S-(4alpha,12aalpha)]-4-(Dimethylamino)-9-[[2-(dimethylamino)-1-oxopropyl]amino]-1,4,4a,5,5a,6,11,12a-octahydro-3,10,12,12a-tetrahydroxy-1,11-dioxo-2-naphthacenecarboxamide dihydrochloride] | 1 µg/mL | 0.5 µg/mL | 0.06 µg/mL | 1 µg/mL | 0.25 µg/mL | 0.5 µg/mL | 32 µg/mL | 0.5 µg/mL | 0.25 µg/mL | 0.5 µg/mL | 1 µg/mL | 1 µg/mL | 1 µg/mL | 0.25 µg/mL | 0.5 µg/mL | 0.5 µg/mL | 0.5 µg/mL | 2 µg/mL | 0.5 µg/mL | 4 µg/mL | MIC [3]: 8 µg/mL; MIC ([8]; S. aureus IVES 1983, read-out: MIC): 1 µg/mL; MIC [10]: 0.25 µg/mL; MIC ([11]; read-out: MIC): 0.25 µg/mL; MIC [12]: 0.25 µg/mL; MIC [14]: 0.5 µg/mL; MIC ([17]; read-out: MIC): 0.06 µg/mL; MIC [18, 34]: 0.25 µg/mL; MIC [19]: 2 µg/mL; MIC [22]: 0.25 µg/mL; MIC [23]: 1 µg/mL; MIC ([32]; S. aureus IVES 2943, read-out: MIC): 1 µg/mL |
| CCNCC(=O)Nc1ccc2c(c1O)C(=O)C1=C(O)[C@]3(O)C(=O)C(C(N)=O)=C(O)[C@@H](N(C)C)C3CC1C2 (stereo partly drawn) [E, [4S-(4alpha,12aalpha)]-4-(Dimethylamino)-9-[[(ethylamino)acetyl]amino]-1,4,4a,5,5a,6,11,12a-octahydro-3,10,12,12a-tetrahydroxy-1,11-dioxo-2-naphthacenecarboxamide dihydrochloride] | 0.5 µg/mL | 0.25 µg/mL |  | 8 µg/mL | 0.5 µg/mL | 0.25 µg/mL |  | 0.5 µg/mL | 0.12 µg/mL | 0.5 µg/mL | 0.5 µg/mL | 0.5 µg/mL | 1 µg/mL | 0.25 µg/mL | 0.5 µg/mL | 0.5 µg/mL | 1 µg/mL | 2 µg/mL | 0.25 µg/mL | > 32 µg/mL | MIC ([3]; read-out: MIC): 4 µg/mL; MIC [4]: 0.12 µg/mL; MIC [8]: 8 µg/mL; MIC [9]: 16 µg/mL; MIC [10, 35]: 0.25 µg/mL; MIC [11]: 0.5 µg/mL; MIC [12, 36]: 0.25 µg/mL; MIC ([14]; read-out: MIC): 0.25 µg/mL; MIC [17]: 0.12 µg/mL; MIC [18]: 0.25 µg/mL; MIC [19]: 8 µg/mL; MIC ([22]; S. aureus UBMS 90-2 Tet M): 0.12 µg/mL; MIC [23]: 1 µg/mL; MIC [32]: 16 µg/mL |
| CN(C)CC(=O)Nc1ccc2c(c1O)C(=O)C1=C(O)[C@]3(O)C(=O)C(C(=O)NCN4CCCC4)=C(O)[C@@H](N(C)C)C3CC1C2 (stereo partly drawn) [EE, [4S-(4alpha,12aalpha)]-4-(Dimethylamino)-9-[[(dimethylamino)acetyl]amino]-1,4,4a,5,5a,6,11,12a-octahydro-3,10,12,12a-tetrahydroxy-1,11-dioxo-N-(l-pyrrolidinylmethyl)-2-naphthacenecarboxamide] | 0.5 µg/mL (≈ 0.837 µM) | 0.25 µg/mL (≈ 0.418 µM) | 0.25 µg/mL (≈ 0.418 µM) | 1 µg/mL (≈ 1.67 µM) | 0.25 µg/mL (≈ 0.418 µM) | 0.25 µg/mL (≈ 0.418 µM) | 16 µg/mL (≈ 26.8 µM) | 0.25 µg/mL (≈ 0.418 µM) | 0.12 µg/mL (≈ 0.201 µM) | 0.5 µg/mL (≈ 0.837 µM) | 0.5 µg/mL (≈ 0.837 µM) | 0.5 µg/mL (≈ 0.837 µM) | 1 µg/mL (≈ 1.67 µM) | 0.12 µg/mL (≈ 0.201 µM) | 0.25 µg/mL (≈ 0.418 µM) | 0.25 µg/mL (≈ 0.418 µM) | 0.5 µg/mL (≈ 0.837 µM) | 2 µg/mL (≈ 3.35 µM) | 0.25 µg/mL (≈ 0.418 µM) | 8 µg/mL (≈ 13.4 µM) | MIC ([3]; read-out: MIC): 4 µg/mL (≈ 6.69 µM); MIC [8]: 2 µg/mL (≈ 3.35 µM); MIC [10, 35]: 0.25 µg/mL (≈ 0.418 µM); MIC ([11]; read-out: MIC): 0.25 µg/mL (≈ 0.418 µM); MIC [12, 36]: 0.25 µg/mL (≈ 0.418 µM); MIC [14]: 0.25 µg/mL (≈ 0.418 µM); MIC [17]: 0.12 µg/mL (≈ 0.201 µM); MIC [18, 34]: 0.12 µg/mL (≈ 0.201 µM); MIC ([19]; X. maltophilia NEMC 87210, read-out: MIC): 2 µg/mL (≈ 3.35 µM); MIC [22]: 0.25 µg/mL (≈ 0.418 µM); MIC ([23]; S. hemolyticus AVHAH 88-3, read-out: MIC): 0.5 µg/mL (≈ 0.837 µM); MIC [32]: 2 µg/mL (≈ 3.35 µM) |
